The test system of data set [1] is Bifidobacterium longum subsp. infantis ATCC 15697 strain. The experiment in a line: Cell growth with each purified sugar as single carbon source (Bioscreen C). Format: cell-based. To be noted: 5 g/L of each purified sugar, 37° C. The protocol: In this case, as a culture composition, 10 g/L of BactoPeptone, 5 g/L of a yeast extract, 2 g/L of K2HPO4 anhydride, 5 g/L of Na acetate anhydride, 2 g/L of NH4 citrate tribasic, 0.2 g/L of Mg sulfate heptahydrate, 0.05 g/L of Mn sulfate, 1 mL/L of Tween 80 (polysorbate 80), 0.5 g/L of cysteine, and 5 g/L of each purified sugar were used and cultured at 37° C.

The test system is the same in data set [2]. Put plainly: Agarotriose fermentation profile under test tube condition. Format: cell-based. To be noted: 5 g/L agarotriose as carbon source. The procedure:
In order to monitor fermentation products, a Bifidobacterium longum subsp. Infantis ATCC 15697 strain was cultured under a test tube condition.

The subject of data set [3] is crude enzyme solution of a Bifidobacterium longum subsp. infantis ATCC 15697 strain. The experiment in a line: Degradation experiment using crude enzyme solution. Type of data set: biochemical. To be noted: 2 mg/mL crude enzyme, 2 mg/mL substrate, 30° C., pH 7.0, 2 hours. The procedure:
In order to confirm the metabolic pathway of agarotriose, an experiment was performed on a crude enzyme solution of a Bifidobacterium longum subsp. infantis ATCC 15697 strain. For this purpose, cells and the medium were separated by centrifugation (14,000 rpm, 5 minutes, 4° C.) of a culture solution of Bifidobacterium longum subsp. infantis ATCC 15697 cultured under an agarotriose condition. An extracellular crude enzyme was obtained by ammonium sulfate precipitation of a supernatant. Further, for a cell-free extract including an intracellular crude enzyme, a supernatant crude enzyme was obtained by re-suspending cells in a 20 mM Tris-HCl buffer, and then lysing the cells by sonication, and centrifuging the lysate. During the crude enzyme experiment, 2 mg/mL of the crude enzyme and 2 mg/mL of agarotriose as a substrate were used to perform a reaction under an enzymatic reaction condition of 30° C. and 200 rpm in a 20 mM Tris-HCl buffer (pH 7.0) for 2 hours.

The subject of another data set is B. bifidum DSM 20082. The experiment in a line: Fermentation ability of agarotriose as single carbon source. Type of data set: cell-based. The procedure: (§1) In order to confirm whether agarotriose also had prebiotic effects on probiotic microorganisms other than a Bifidobacterium longum subsp. infantis ATCC 15697 strain, Bifidobacterium longum subsp. infantis ATCC 17930, Bifidobacterium longum subsp. infantis ATCC 15702, B. bifidum DSM 20082, and B. kashiwanohense DSM 21854 were cultured under agarotriose single carbon source conditions.

Data set [4] has as its system B. kashiwanohense DSM 21854. The description is as above. Format: cell-based. The protocol: as §1
For data set [5], the system named is Bifidobacterium longum subsp. infantis ATCC 15702. The data set is described as above. Type of data set: cell-based. The protocol:
as §1

For data set [6], the system named is Bifidobacterium longum subsp. infantis ATCC 17930. Described as above. Type of data set: cell-based. The protocol:
as §1

Data set [7] in a line: Stability test against artificial gastric juice. Type of data set: in vitro ADME. To be noted: 37° C., 3 hours, TLC and HPLC. From the text: In order to test whether agarotriose could reach the intestines without being degraded, agarotriose was reacted in artificial gastric juice for each time, and then it was confirmed whether agarotriose was degraded, using TLC and HPLC.

The structures appear in SMILES notation.

Consider `OC[C@H]1O[C@@H](O[C@H]2[C@H]3OC[C@@H]2O[C@@H](O[C@@H]2[C@@H](O)[C@H](O)O[C@H](CO)[C@@H]2O)[C@H]3O)[C@H](O)[C@@H](O)[C@H]1O` [agarotriose], for which the “fermentation (cell growth) of the sugar as single carbon source” value in data set [1] was “selectively fermented”. Besides, in data set [2], the “fate of the sugar during fermentation” value is “degraded agarotriose into galactose and neoagarobiose”. For the same compound, in data set [3], the “degradation of the substrate by crude enzyme” value was “degrading agarotriose into galactose and neoagarobiose occurred in the cell-free extract”. In addition, the metabolism of agarotriose entry is “metabolized agarotriose and degraded agarotriose into galactose and neoagarobiose” in the data set with B. bifidum DSM 20082; “metabolized agarotriose and degraded agarotriose into galactose and neoagarobiose” in data set [4]; “metabolized agarotriose and degraded agarotriose into galactose and neoagarobiose” in data set [5]; “metabolized agarotriose and degraded agarotriose into galactose and neoagarobiose” in data set [6]. In addition, in data set [7], the agarotriose remained is given as at least 80%.
As to `OC[C@H]1OC(O)[C@H](O)[C@@H](O[C@@H]2O[C@H]3CO[C@@H]([C@@H]2O)[C@@H]3O)[C@H]1O` (stereo partly shown) [neoagarobiose, reference compound], in data set [2], the “fate of the sugar during fermentation” value was “secreted and accumulated outside the cells without being degraded in the cells any more”. Also, the “degradation of the substrate by crude enzyme” value in data set [3] is listed as “not exhibited”.

These data come from US20220241349A1, “METHOD FOR PRODUCING MARINE ALGAE-DERIVED AGAROTRIOSE, AND USE THEREOF AS PREBIOTIC” (Korea University Research and Business Foundation, priority 2017, published 2022).
